Assays:
Assay in all cases: Ligand Binding Assay
Details in all cases: pH 8.2; 30 °C
[1] = target: Fatty acid-binding protein 5 (Homo sapiens, UniProt Q01469)
Text: (§1) In brief, both wild-type and mutant hFABP5 were expressed and purified to homogeneity as described above and dialyzed in PBS (pH 8.2). […] Blank measurements obtained from protein-only samples were subtracted at each protein concentration tested to obtain the final values. […] Blanks consisting of 1,8-ANS and fatty acid in the absence of protein were subtracted at each ligand concentration tested. The resulting fluorescence values were used to calculate a Ki value for the fatty acid of interest. Data were collected at 30 °C on a BioTek Synergy plate reader using an excitation filter of 380/20nm and an emission filter of 460/40nmand processed inGraphPad Prism 5.

[2] = target: Fatty acid-binding protein 5 [K24A,R33A,K34A] (Homo sapiens, UniProt Q01469, K24A/K34A/R33A)
Fatty acid-binding protein 5 [K24A,R33A,K34A], sequence (Q01469 2-135 K24A/R33A/K34A limits assumed): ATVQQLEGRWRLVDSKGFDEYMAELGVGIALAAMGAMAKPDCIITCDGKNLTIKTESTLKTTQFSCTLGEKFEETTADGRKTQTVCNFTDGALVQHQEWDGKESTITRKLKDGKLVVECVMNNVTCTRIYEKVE
Text: as §1

[3] = target: Fatty acid-binding protein 5 [M35A,L60A] (Homo sapiens, UniProt Q01469, L60A/M35A)
Fatty acid-binding protein 5 [M35A,L60A], sequence (Q01469 2-135 M35A/L60A limits assumed): as the sequence (Q01469 2-135 K24A/R33A/K34A limits assumed) above, with A23K, A32R, A33K, M34A, L59A counted along it
Text: as §1

Fatty acid-binding protein 5, sequence (Q01469 whole entry): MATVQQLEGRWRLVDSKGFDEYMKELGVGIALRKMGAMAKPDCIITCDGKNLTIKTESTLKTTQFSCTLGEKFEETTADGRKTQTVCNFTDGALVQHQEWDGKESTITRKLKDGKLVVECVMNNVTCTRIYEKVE

Row | Kd [1] [nM] | Kd [2] [nM] | Kd [3] [nM] | SMILES | Ki [1] [nM] | Ki [2] [nM] | Ki [3] [nM]
1 | – | – | – | CCCCC/C=C\C/C=C\CCCCCCCC(=O)O | 1260 | 2170 | 3470
2 | – | – | – | CCCCCC/C=C\CCCCCCCC(=O)O [(9Z)-hexadec-9-enoic acid] | 1360 | 1640 | 1780
3 | 6570 | 12600 | 6100 | O=S(=O)(O)c1cccc2cccc(Nc3ccccc3)c12 [ANS] | – | – | –
4 | – | – | – | CCCCCCCCN[C@H]1C=C(CO)[C@@H](O)[C@H](O)[C@H]1O [NOEV] | 1100 | 1240 | 700
5 | – | – | – | CCCCC/C=C\C/C=C\C/C=C\C/C=C\CCCC(=O)O [[1-14C]Arachidonic acid] | 2590 | 9370 | 5010

Source: BindingDB's records for doi:10.1074/jbc.M113.514646 (Emory University, 2014)
